Literature values in US6517854B2, “Antimicrobial sanitizing lotion with skin protection properties” (priority 1999, dated 2003).

Experiments:
gram-positive bacteria = details: organisms listed in the 1st table r1-r26
gram-negative bacteria = details: organisms listed in the 1st table r28-r63
fungi and yeasts = details: organisms listed in the 1st table r65-r73

Oc1cc(Cl)ccc1Oc1ccc(Cl)cc1Cl [TRICLOSAN, 2,4,4′-trichloro-2′-hydroxydiphenyl ether]
demonstrated efficacy: efficacy against gram-positive bacteria (gram-positive bacteria) | efficacy against gram-negative bacteria (gram-negative bacteria) | efficacy against fungi and yeasts (fungi and yeasts)
